From US6927228B2, “Biaromatic compound activators of PPARγ-type receptors” (Galderma Research & Development, S.N.C., priority 2000, dated 2005)
Marks after values point to notes of the source that are not given here.

Key:
[1] = target: T1, PPARα receptors (Homo sapiens, UniProt Q07869); test: PPARα transactivation test; type: cell-based; conditions: concentration of 1 μM, relative to Wy 14643 = 100%
T1 construct: expressed in transfected cells
T1 sequence (Q07869 1-468): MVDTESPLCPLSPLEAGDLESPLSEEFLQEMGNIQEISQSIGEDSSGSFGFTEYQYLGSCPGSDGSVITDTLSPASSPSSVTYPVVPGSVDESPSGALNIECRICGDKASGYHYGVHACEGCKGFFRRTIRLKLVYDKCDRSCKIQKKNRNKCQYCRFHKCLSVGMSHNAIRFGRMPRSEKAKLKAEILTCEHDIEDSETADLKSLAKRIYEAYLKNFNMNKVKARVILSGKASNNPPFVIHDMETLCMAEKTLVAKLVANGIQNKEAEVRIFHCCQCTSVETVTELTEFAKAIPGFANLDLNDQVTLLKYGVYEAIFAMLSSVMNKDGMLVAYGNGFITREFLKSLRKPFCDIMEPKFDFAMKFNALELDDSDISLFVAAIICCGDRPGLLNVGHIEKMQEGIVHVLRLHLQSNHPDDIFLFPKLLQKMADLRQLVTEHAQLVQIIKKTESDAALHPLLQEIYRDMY
From the text: [Worded in the source for another target; this target is reported under the same test.] (§1) The agonist activity of the compounds according to the invention towards PPARγ receptors may be evaluated by binding tests and transactivation tests.

[2] = target: T2, PPARγ receptors (Homo sapiens, UniProt P37231); test: PPARγ transactivation test; type: cell-based; set-up: expressed in transfected cells; conditions: concentration of 1 μM, relative to SB 219994 = 100%
T2 sequence (P37231 1-505): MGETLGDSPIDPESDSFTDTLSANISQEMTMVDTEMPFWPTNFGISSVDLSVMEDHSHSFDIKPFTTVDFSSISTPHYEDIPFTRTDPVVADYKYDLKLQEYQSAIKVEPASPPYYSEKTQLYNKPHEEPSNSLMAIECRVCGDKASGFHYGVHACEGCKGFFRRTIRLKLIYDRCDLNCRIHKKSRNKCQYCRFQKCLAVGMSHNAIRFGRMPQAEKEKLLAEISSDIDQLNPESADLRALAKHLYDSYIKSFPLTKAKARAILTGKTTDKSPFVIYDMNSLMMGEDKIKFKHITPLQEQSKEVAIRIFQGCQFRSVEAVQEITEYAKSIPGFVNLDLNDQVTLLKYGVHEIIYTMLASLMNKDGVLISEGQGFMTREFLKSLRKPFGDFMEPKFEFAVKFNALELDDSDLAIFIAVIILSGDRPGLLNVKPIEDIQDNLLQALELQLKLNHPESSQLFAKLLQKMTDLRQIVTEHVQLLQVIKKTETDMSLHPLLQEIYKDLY
From the text: as §1

[3] = target: T2, PPARγ receptors; test: PPARγ binding test, competition with tritiated BRL 49,653; set-up: made in house; host or cells: Sf9 insect cells (recombinant baculovirus); conditions: hydroxyapatite gel, receptor from Sf9 insect cells, read-out: Binding of PPAR-γ Kd
Protocol: The technique of adsorption on hydroxyapatite gel was used to separate the receptor-bound ligand from the free ligand. The human PPARγ receptor was prepared from Sf9 insect cells infected with a recombinant baculovirus. The results are expressed as a Kd value (nM) which represents the equilibrium dissociation constant obtained for each compound.
as §1

CN(Cc1cccc(-c2ccc(CC3SC(=O)NC3=O)cc2)c1)C(=O)c1ccccc1 (stereo not shown) [Example 1, N-[4′-(2,4-Dioxothiazolidin-5-ylmethyl)biphenyl-3-ylmethyl]-N-methylbenzamide]
activation at 1 µM [1]: 8.2% | activation at 1 µM [2]: 102% | Kd [3]: 55 nM

CN(Cc1cccc(-c2ccc(CC3SC(=O)NC3=O)cc2)c1)c1ccccn1 (stereo not shown) [Example 2, 5-{3′-[(Methylpyrid-2-ylamino)methyl]biphenyl-4-ylmethyl}thiazolidine-2,4-dione]
activation at 1 µM [1]: 8.2% | activation at 1 µM [2]: 42.9% | Kd [3]: 263 nM

CN(Cc1cccc(-c2ccc(CC3SC(=O)NC3=O)cc2)c1)C(=O)Nc1ccccc1 (stereo not shown) [Example 10, 1-[4′-(2,4-Dioxothiazolidin-5-ylmethyl)biphenyl-3-ylmethyl]-1-methyl-3-phenylurea]
activation at 1 µM [1]: 0% | activation at 1 µM [2]: 22.1% | Kd [3]: 800 nM

CN(Cc1cccc(-c2ccc(CC3SC(=O)NC3=O)cc2)c1)C(=O)OC(C)(C)C (stereo not shown) [Example 11, tert-Butyl [4′-(2,4-dioxothiazolidin-5-ylmethyl)biphenyl-3-ylmethyl]methylcarbamate]
activation at 1 µM [1]: 2.4% | activation at 1 µM [2]: 74.5% | Kd [3]: 289 nM

CCCCCCCCC(=O)N(C)Cc1cccc(-c2ccc(CC3SC(=O)NC3=O)cc2)c1 (stereo not shown) [Example 12, N-[4′[2,4-dioxothiazolidin-5-ylmethyl)biphenyl-3-ylmethyl]-N-methylnonanamide]
activation at 1 µM [1]: 0% | activation at 1 µM [2]: 60.4% | Kd [3]: 7 nM

CCO[C@@H](Cc1ccc(-c2cccc(CN(C)C(=O)c3ccccc3)c2)cc1)C(=O)O [Example 13, (S)-2-Ethoxy-3-(3′-{[methyl-(1-phenylmethanoyl)-amino]methyl}biphenyl-4-yl)propionic acid]
activation at 1 µM [1]: 0% | activation at 1 µM [2]: 70.2% | Kd [3]: 24 nM

CN(Cc1cccc(-c2ccc(CC3SC(=O)NC3=O)cc2)c1)C(=O)OCC1c2ccccc2-c2ccccc21 (stereo not shown) [Example 21, 9H-Fluoren-9-ylmethyl [4′-(2,4-dioxothiazolidin-5-ylmethyl)biphenyl-3-ylmethyl]methylcarbamate]
activation at 1 µM [1]: 14.9% | activation at 1 µM [2]: 90% | Kd [3]: 190 nM

CN(Cc1cccc(-c2ccc(CC3SC(=O)NC3=O)cc2)c1)C(=O)C(C)(C)C (stereo not shown) [Example 22, N-[4′-(2,4-Dioxothiazolidin-5-ylmethyl)biphenyl-3-ylmethyl]-2,2,N-trimethylpropionamide]
activation at 1 µM [1]: 7.5% | activation at 1 µM [2]: 95.3% | Kd [3]: 76.6 nM

CN(Cc1cccc(-c2ccc(CC3SC(=O)NC3=O)cc2)c1)C(=O)CCc1ccccc1 (stereo not shown) [Example 24, N-[4′-(2,4-Dioxothiazolidin-5-ylmethyl)biphenyl-3-ylmethyl]-N-methyl-3-phenylpropionamide]
activation at 1 µM [1]: 8.7% | activation at 1 µM [2]: 95% | Kd [3]: 72.3 nM

CCCN(Cc1cccc(-c2ccc(C=C3SC(=O)NC3=O)cc2)c1)C(=O)c1ccccc1 [Example 26, N-[4′-(2,4-Dioxothiazolidin-5-ylidenemethyl)-biphenyl-3-ylmethyl]-N-propylbenzamide]
activation at 1 µM [1]: 2.1% | activation at 1 µM [2]: 88.6%

CCOc1ccc(C(=O)N(C)Cc2cccc(-c3ccc(CC4SC(=O)NC4=O)cc3)c2)cc1OCC (stereo not shown) [Example 28, N-[4′-(2,4-Dioxothiazolidin-5-ylmethyl)biphenyl-3-ylmethyl]-3,4-diethoxy-N-methylbenzamide]
activation at 1 µM [1]: 1.1% | activation at 1 µM [2]: 79.8%

CN(Cc1ccccc1)C(=O)c1cccc(-c2ccc(CC3SC(=O)NC3=O)cc2)c1 (stereo not shown) [Example 30, N-Benzyl-N-methyl-4′-(2,4-dioxothiazolidin-5-ylmethyl)biphenyl-3-carboxamide]
activation at 1 µM [1]: 8.9% | activation at 1 µM [2]: 80.3%

CCCCCCCCCC(=O)N(C)Cc1cccc(-c2ccc(CC3SC(=O)NC3=O)cc2)c1 (stereo not shown) [Example 32, N-[4′-(2,4-Dioxothiazolidin-5-ylmethyl)biphenyl-3-ylmethyl]-N-methyldecanamide]
activation at 1 µM [1]: 0% | activation at 1 µM [2]: 74.9%

CCCCCCCC(=O)N(C)Cc1cccc(-c2ccc(CC3SC(=O)NC3=O)cc2)c1 (stereo not shown) [Example 34, N-[4′-(2,4-Dioxothiazolidin-5-ylmethyl)biphenyl-3-ylmethyl]-N-methyloctanamide]
activation at 1 µM [1]: 17.6% | activation at 1 µM [2]: 102% | Kd [3]: 2 nM

CCCCCCC(=O)N(C)Cc1cccc(-c2ccc(CC3SC(=O)NC3=O)cc2)c1 (stereo not shown) [Example 35, N-[4′-(2,4-Dioxothiazolidin-5-ylmethyl)biphenyl-3-ylmethyl]-N-methylheptanamide]
activation at 1 µM [1]: 11% | activation at 1 µM [2]: 56%

Cc1cccc(Nc2cc(Cl)nc(SCC(=O)O)n2)c1C [Reference 1: Wy 14643, reference compound]
% of activation of PPARα [1]: 100* %

CN(CCOc1ccc(C[C@H](OCC(F)(F)F)C(=O)O)cc1)c1nc2ccccc2o1 [Reference 2: SB 219994, reference compound]
% of activation of PPARγ [2]: 100% | Kd [3]: 0.5 nM
